Data reported in patent US10080812B2, “Radioactive iodine labeled pyrido[1,2-a]benzoimidazole derivative compound” (priority 2015, dated 2018).

How the values were obtained:
[1] = Metabolite analysis in brain; assay type: in vivo, ddY mouse; details: mouse brain, 2 min after i.v. administration
Protocol: A 5-week-old male ddY mouse was used as a normal mouse. [^123I]BIP-3 obtained by the method shown in Example 10, which was contained in saline containing 0.1 vol % Tween 80 and 10 vol % ethanol, was administered from the tail vein (3.70 MBq, […]). After 2 minutes, the mouse was slaughtered, and the brain was excised, homogenized in methanol (2.00 mL) and TBS (2.00 mL), and centrifuged at 4000×g at 4° C. for 10 minutes, followed by the collection of a supernatant. The obtained supernatant was passed through Cosmonice Filter (S) (0.45 μm, 4 mm) (Nacalai Tesque, Inc.) and analyzed by reverse phase HPLC. Analytical conditions for HPLC were the same as the conditions used in Example 9.

[2] = Metabolite analysis in blood; assay type: in vivo, ddY mouse; details: i.v.; for Proportion of parent compound in blood: mouse plasma, mean±SD n=3
Protocol: A 5-week-old male ddY mouse was used as a normal mouse. [^123I]BIP-3 obtained by the method shown in Example 10, which was contained in saline containing 0.1 vol % Tween 80 and 10 vol % ethanol, was administered from the tail vein (3.70 MBq, 100 μL). 2 minutes, 10 minutes, or 30 minutes after administration, the mouse was slaughtered, and blood was collected into a test tube with an inner wall coated with Heparin Sodium Injection (manufactured by Nipro Pharma Corp.). After radioactivity measurement, the blood was centrifuged at 4000×g at 4° C. for 5 minutes and separated into plasma and cell components. To the obtained plasma, a 2-fold volume of methanol was added for protein denaturation, and the mixture was centrifuged at 4000×g at 4° C. for 5 minutes. The obtained supernatant was passed through Cosmonice Filter (S) (0.45 μm, 4 mm) (Nacalai Tesque, Inc.) and analyzed by reverse phase HPLC. Analytical conditions for HPLC were the same as the conditions used in Example 9.

Q: For `[123I]c1ccc2c(c1)nc1ccccn12` [[^123I]BIP-3, 7-[^123I]iodobenzo[4,5]imidazo[1,2-a]pyridine], which “metabolite analysis of brain homogenates (reverse phase HPLC)” value [1] is on record?
A: only the signal peak of the parent compound was detected

Q: And the “Proportion of parent compound in blood” value ([2]; 2 min after administration)?
A: 83.1 ± 7.7

Q: What about the “Proportion of parent compound in blood” value ([2]; 10 min after administration) of the same compound?
A: 23.6 ± 2.2

Q: And the “Proportion of parent compound in blood” value ([2]; 30 min after administration)?
A: 8.4 ± 1.1

Q: And the “metabolite formation in blood” value ([2]; mouse, HPLC of plasma)?
A: forms a highly water-soluble metabolite
